Test results as given in USRE43343E1, “Inhibitors of histone deacetylase” (Methylgene Inc., priority 1999, dated 2012).

Tested on: histone deacetylase in nuclear extracts from H446 cells (pooled HDACs)
Assay: Histone deacetylase inhibition, H446 nuclear extracts (pooled HDACs)
Format: biochemical, human
Conditions: @ 20 μM
Description: (§1) The reaction was stopped by adding acetic acid (0.04 M, final concentration) and HCl (250 mM, final concentration). The mixture was extracted with ethyl acetate and the released [^3H]-acetic acid was quantified by scintillation counting. For inhibition studies, the enzyme was preincubated with compounds at 4° C. for 30 minutes prior to initiation of the enzymatic assay. IC50 values for HDAC enzyme inhibitors were determined by performing dose response curves with individual compounds and determining the concentration of inhibitor producing fifty percent of the maximal inhibition.

First: O=C(CCCc1ccc(C(=O)NO)cc1)c1ccccc1 [Compound 177]
Second: O=C(NO)c1ccc(CCCC(O)c2ccc3ccccc3c2)cc1 (stereo not drawn) [Compound 149]
The “pooled HDACs percent inhibition at the specified concentration” value (from here on “pooled HDACs percent inhibition”) of the first is higher: 10% @ 20 μM for the first, 8% @ 20 μM for the second.

First: Nc1ccccc1NC(=O)/C=C/c1ccc(CC(=O)c2ccccc2)o1 [Compound 139]
Second: Nc1ccccc1NC(=O)c1ccc(CC(=O)c2ccccc2)o1 [Compound 178]
The “pooled HDACs percent inhibition” value of the first is higher: 44% @ 20 μM for the first, 2% @ 20 μM for the second.

Going from O=C(CCC1CCC(CC(=O)c2ccccc2)O1)NO (stereo not drawn) [Compound 176] to Nc1ccccc1NC(=O)CCc1ccc(CC(=O)c2ccccc2)o1 [Compound 144], the “pooled HDACs percent inhibition” value falls from 20% @ 20 μM to 6% @ 20 μM.

Compared with CN(C)c1ccc(CCc2ccccc2C(=O)NO)cc1 [Compound 173], O=C(CCCc1ccc(CCCc2ccccc2)cc1)NO [Compound 155] is higher in “pooled HDACs percent inhibition” value: 35% @ 20 μM for the first, 39% @ 20 μM for the second.

For Nc1ccccc1NC(=O)/C=C/C#Cc1cccc(NS(=O)(=O)c2ccccc2)c1 [Compound 168], the “pooled HDACs percent inhibition” value was 0% @ 20 μM.

Same assay, conditions: [3H]-acetylated histone substrate

Compared with O=C(CCc1ccc(CCCCc2ccccc2)cc1)NO [Compound 154], O=C(Cc1ccc(CCCc2ccccc2)cc1)NO [Compound 175] is higher in IC50: 2 µM for the first, over 20 µM for the second. The first is the more potent here.

Target: T1, recombinant human HDAC-1 enzyme (rHDAC-1) (Homo sapiens, UniProt Q13547)
T1 construct: made in house; host or cells: Baculovirus insect cell expression system
T1 sequence (Q13547 whole entry): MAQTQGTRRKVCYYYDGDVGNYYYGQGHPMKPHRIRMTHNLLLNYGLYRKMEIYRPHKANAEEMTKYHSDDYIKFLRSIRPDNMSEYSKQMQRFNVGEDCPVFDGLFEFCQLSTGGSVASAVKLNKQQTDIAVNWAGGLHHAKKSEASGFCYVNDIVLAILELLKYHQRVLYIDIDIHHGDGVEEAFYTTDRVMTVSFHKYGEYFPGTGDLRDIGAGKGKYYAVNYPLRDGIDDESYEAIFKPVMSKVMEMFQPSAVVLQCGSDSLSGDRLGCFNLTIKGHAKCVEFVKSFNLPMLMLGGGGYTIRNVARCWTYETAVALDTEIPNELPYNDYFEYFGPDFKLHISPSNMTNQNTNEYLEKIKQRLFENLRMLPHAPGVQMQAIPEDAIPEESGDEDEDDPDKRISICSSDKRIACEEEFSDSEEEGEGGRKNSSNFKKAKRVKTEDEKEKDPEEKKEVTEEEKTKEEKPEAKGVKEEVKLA
Assay: Histone deacetylase inhibition, recombinant human HDAC-1
Format: biochemical
Conditions: cloned recombinant human HDAC-1 from Baculovirus insect cell expression system
Description: as §1

Compared with Cc1ccc(NS(=O)(=O)c2ccc(/C=C/C(=O)NO)cc2)cc1 [Compound 161], Cc1ccc(NS(=O)(=O)c2ccc(/C=C/C(=O)Nc3ccccc3N)cc2)cc1 [Compound 159] is 30-fold higher in IC50: 0.05 µM for the first, 1.5 µM for the second. The first is the more potent here.

Going from O=C(NO)c1ccc(CCCCCc2ccccc2)cc1 [Compound 153] to O=C(CCc1ccc(CCCCc2ccccc2)cc1)NO [Compound 154], the IC50 falls from 4.8 µM to 0.9 µM (5.3-fold). The second is the more potent here.

Going from O=C(C#Cc1ccc(NS(=O)(=O)c2ccc(-c3ccccc3)cc2)cc1)NO [Compound 128] to O=C(/C=C/c1ccc(NS(=O)(=O)c2ccc(-c3ccccc3)cc2)cc1)Nc1nnc(S)s1 [Compound 165], the IC50 rises from 0.3 µM to 2 µM (6.7-fold).

Going from COc1ccc(NC(=O)Nc2ccc(/C=C/C(=O)NO)cc2)cc1OC [Compound 147] to O=C(/C=C/c1ccc(NC(=O)Nc2cccc3ccccc23)cc1)NO [Compound 146], the IC50 rises from 0.48 µM to 0.91 µM (1.9-fold).

Compared with O=C(/C=C/c1ccc(CC(O)c2ccccc2)o1)NO (stereo not drawn) [Compound 136], O=C(NO)c1ccc(/C=C/c2ccccc2)cc1 [Compound 151] is 4.6-fold higher in IC50: 0.5 µM for the first, 2.3 µM for the second.

First: O=C(CCc1ccc(CCc2ccccc2)cc1)NO [Compound 157]
Second: O=C(CCCc1ccc(CCCCc2ccccc2)cc1)NO [Compound 156]
The IC50 of the first is 3.2-fold higher: 2.4 µM for the first, 0.75 µM for the second.

Compared with COc1ccc(S(=O)(=O)Nc2ccc(CCC(=O)Nc3ccccc3N)cc2)cc1OC [Compound 121], COc1ccc(NS(=O)(=O)c2ccc(/C=C/C(=O)Nc3ccccc3N)cc2)cc1OC [Compound 118] is 10-fold lower in IC50: 23 µM for the first, 2.3 µM for the second.

Compared with Nc1ccccc1NC(=O)CCc1ccc(CC(=O)c2ccccc2)o1 [Compound 144], Nc1ccccc1NC(=O)/C=C/c1ccc(S(=O)(=O)Nc2ccc(-c3ccccc3)cc2)cc1 [Compound 160] is 5.8-fold lower in IC50: 6.9 µM for the first, 1.2 µM for the second. The second is the more potent here.

Going from O=C(NO)c1ccc(CCCC(O)c2ccc3ccccc3c2)cc1 (stereo not drawn) [Compound 149] to COc1ccc(S(=O)(=O)Nc2ccc(/C=C/C(=O)Nc3ccccc3N)cc2)cc1 [Compound 122], the IC50 rises from 0.1 µM to 2.3 µM (23-fold). The first is the more potent here.

COc1ccc(NS(=O)(=O)c2ccc(/C=C/C(=O)Nc3nnc(S)s3)cc2)cc1OC [Compound 164] was tested, and the IC50 was 5 µM.
